In patent US12187709B2 (Genentech, Inc., priority 2021, dated 2025):

Columns and labels:
[1] = biological target: Cbl-b (Homo sapiens (Human), UniProt Q13191); test: Cbl-b LCK Ub TR-FRET assay (Cbl-b Lck HTRF); assay type: biochemical; settings: for IC50: Cbl-b LCK Ub TR-FRET; for fold-selectivity (Cbl-b over C-cbl) / (fold-selectivity) Cbl-b and C-Cbl Selectivity: ratio C-cbl Lck HTRF IC50 / Cbl-b Lck HTRF IC50
Summary of the method: (§1)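 Detection reagents added, brief spin, 20 min RT. IC50 fit normalized to no-LCK (low) and DMSO (high) controls.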

[2] = biological target: c-Cbl (Homo sapiens (Human), UniProt P22681); test: C-Cbl LCK Ub TR-FRET assay (C-cbl Lck HTRF); assay type: biochemical
c-Cbl, sequence (P22681 47-435): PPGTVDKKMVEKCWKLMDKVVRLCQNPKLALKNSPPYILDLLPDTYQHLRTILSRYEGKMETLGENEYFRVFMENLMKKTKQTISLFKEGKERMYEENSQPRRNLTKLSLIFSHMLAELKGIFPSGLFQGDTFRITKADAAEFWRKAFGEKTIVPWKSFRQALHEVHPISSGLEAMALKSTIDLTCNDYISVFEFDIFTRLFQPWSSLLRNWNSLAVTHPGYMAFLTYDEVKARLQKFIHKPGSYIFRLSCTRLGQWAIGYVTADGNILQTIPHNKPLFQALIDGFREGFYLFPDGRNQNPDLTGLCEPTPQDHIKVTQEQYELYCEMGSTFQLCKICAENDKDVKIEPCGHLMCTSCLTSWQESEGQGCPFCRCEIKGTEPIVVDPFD
Summary of the method: as §1

[3] = biological target: Human Cbl-b (residues 40-426) (Homo sapiens (Human), UniProt Q13191); test: Cbl-b SPR assay; assay type: binding; settings: for Fold of selectivity: C-cbl SPR Kd vs Cbl-b SPR Kd; for Kd: SPR, 20° C.
Human Cbl-b (residues 40-426), sequence (Q13191 40-426): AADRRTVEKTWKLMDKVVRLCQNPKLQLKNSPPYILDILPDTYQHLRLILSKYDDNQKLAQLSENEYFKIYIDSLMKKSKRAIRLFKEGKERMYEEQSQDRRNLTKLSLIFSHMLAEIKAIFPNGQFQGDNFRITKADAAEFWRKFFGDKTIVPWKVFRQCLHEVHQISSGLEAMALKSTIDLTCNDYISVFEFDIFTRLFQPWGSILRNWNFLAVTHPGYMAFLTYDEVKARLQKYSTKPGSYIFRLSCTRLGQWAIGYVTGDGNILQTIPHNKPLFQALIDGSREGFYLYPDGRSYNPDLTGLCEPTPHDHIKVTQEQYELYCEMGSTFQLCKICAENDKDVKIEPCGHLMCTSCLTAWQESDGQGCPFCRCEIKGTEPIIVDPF
Summary of the method: (§2)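 Where a chaser compound was used, % compound bound was calculated as (1−(RUT/RUT0))*100 relative to a prior chaser injection and fitted to a single exponential for kd. The single cycle titration (max 500 nM) was then fitted with kd held fixed.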

[4] = biological target: c-Cbl (residues 47-435) (Homo sapiens (Human), UniProt P22681); test: c-Cbl SPR assay; assay type: binding; settings: 20° C.
c-Cbl (residues 47-435), sequence (P22681 47-435): as the sequence (P22681 47-435) above
Summary of the method: as §2

Cbl-b, sequence (Q13191 40-426): as the sequence (Q13191 40-426) above

| SMILES | IC50 [1] [nM] | fold-selectivity (Cbl-b over C-cbl) [1] | IC50 [2] [nM] | Fold of selectivity [3] [×] | Kd [3] [nM] | Kd [4] [nM] | IC50 ([1]; Example 121) [nM] | (fold-selectivity) Cbl-b and C-Cbl Selectivity [1] [x] |
| --- | --- | --- | --- | --- | --- | --- | --- | --- |
| COC[C@H]1C[C@@](c2cccc(N3Cc4c(cc(CNC5(C)CCC5)cc4C(F)(F)F)C3=O)c2)(c2nncn2C)C1 [Compound 103, 2-(3-((1s,3s)-3-(methoxymethyl)-1-(4-methyl-4H-1,2,4-triazol-3-yl)cyclobutyl)phenyl)-6-(((1-methylcyclobutyl)amino)methyl)-4-(trifluoromethyl)isoindolin-1-one] | 14 | 1.7x | 26 | 7.8 | 1.6 | 12 | – | – |
| CO[C@H]1C[C@](c2cc(NC3CCCC3)cc(N3Cc4c(cc(CNC5(C)CCC5)cc4C(F)(F)F)C3=O)c2)(c2nncn2C)C1 [Compound 209, 2-(3-(cyclopentylamino)-5-((1r,3r)-3-methoxy-1-(4-methyl-4H-1,2,4-triazol-3-yl)cyclobutyl)phenyl)-6-(((1-methylcyclobutyl)amino)methyl)-4-(trifluoromethyl)isoindolin-1-one] | 44 | 7.2x | 320 | 12 | 17 | 200 | – | – |
| Cn1cnnc1[C@]1(c2cccc(N3Cc4c(cc(CNC5(C)CCC5)cc4C(F)(F)F)C3=O)c2)C[C@@H](CC#N)C1 [Compound 89, 2-((1r,3r)-3-(4-methyl-4H-1,2,4-triazol-3-yl)-3-(3-(6-(((1-methylcyclobutyl)amino)methyl)-1-oxo-4-(trifluoromethyl)isoindolin-2-yl)phenyl)-cyclobutyl)acetonitrile] | 41 | 2.4x | 98 | 6.6 | 0.6 | 4 | – | – |
| CNc1cc(N2Cc3c(cc(CNC4(C)CCC4)cc3C(F)(F)F)C2=O)cc([C@]2(c3nncn3C)C[C@H](OC)C2)c1 [Compound 239, 2-(3-((1r,3r)-3-methoxy-1-(4-methyl-4H-1,2,4-triazol-3-yl)cyclobutyl)-5-(methylamino)phenyl)-6-(((1-methylcyclobutyl)amino)methyl)-4-(trifluoromethyl)isoindolin-1-one] | 13 | 1.0x | 13 | 4.4 | 1 | 4.4 | – | – |
| Cn1cnnc1[C@]1(c2cccc(N3Cc4c(cc(CNC5(C)CCC5)cc4C(F)(F)F)C3=O)c2)C[C@@H](O)C1 [Compound 20, 2-(3-((1r,3r)-3-hydroxy-1-(4-methyl-4H-1,2,4-triazol-3-yl)cyclobutyl)phenyl)-6-(((1-methylcyclobutyl)amino)methyl)-4-(trifluoromethyl)isoindolin-1-one] | 170 | (2.3x) | 390 | 4.4 | 80 | 350 | – | – |
| Cn1cnnc1[C@]1(c2cccc(N3Cc4c(cc(CNC5(C)CCC5)cc4C(F)(F)F)C3=O)c2)C[C@@H](CF)C1 [Compound 101, 2-(3-((1r,3r)-3-(fluoromethyl)-1-(4-methyl-4H-1,2,4-triazol-3-yl)cyclobutyl)phenyl)-6-(((1-methylcyclobutyl)amino)methyl)-4-(trifluoromethyl)isoindolin-1-one] | 9.1 | 1.1x | 9.8 | 4.9 | 0.85 | 4.2 | – | – |
| Cn1cnnc1[C@]1(c2cccc(N3Cc4c(cc(CNC5(C)CCC5)cc4C(F)(F)F)C3=O)c2)C[C@H](CF)C1 [Compound 102, 2-(3-((1s,3s)-3-(fluoromethyl)-1-(4-methyl-4H-1,2,4-triazol-3-yl)cyclobutyl)phenyl)-6-(((1-methylcyclobutyl)amino)methyl)-4-(trifluoromethyl)isoindolin-1-one] | 7.2 | 1.5x | 11 | 4.7 | 0.83 | 3.9 | – | – |

Second part, the compound after the results:

| IC50 [1] [nM] | fold-selectivity (Cbl-b over C-cbl) [1] | IC50 [2] [nM] | Fold of selectivity [3] [×] | Kd [3] [nM] | Kd [4] [nM] | IC50 ([1]; Example 121) [nM] | (fold-selectivity) Cbl-b and C-Cbl Selectivity [1] [x] | SMILES |
| --- | --- | --- | --- | --- | --- | --- | --- | --- |
| 6.6 | 1.4x | 9.3 | 6.4 | 1.8 | 12 | – | – | Cn1cnnc1C1(c2cccc(N3Cc4c(cc(CNC5(C)CCC5)cc4C(F)(F)F)C3=O)c2)CCC1 [Compound 279, 2-(3-(1-(4-methyl-4H-1,2,4-triazol-3-yl)cyclobutyl)phenyl)-6-(((1-methylcyclobutyl)amino)methyl)-4-(trifluoromethyl)isoindolin-1-one] |
| – | – | 24 | 10 | 2 | 21 | 13 | 1.9 | Cn1cnnc1C(c1cccc(N2Cc3c(cc(CNC4(C)CCC4)cc3C(F)(F)F)C2=O)c1)C1(F)CSC1 (stereo not drawn) [Compound 462, 2-(3-((3-fluorothietan-3-yl)(4-methyl-4H-1,2,4-triazol-3-yl)methyl)phenyl)-6-(((1-methylcyclobutyl)amino)methyl)-4-(trifluoromethyl)isoindolin-1-one] |
| – | – | 60 | 15 | 6.6 | 9.9 | 13 | 4.6 | CO[C@H]1C[C@](c2cccc(N3Cc4c(cc(CNC5CC6(C5)CC6(F)F)cc4C(F)(F)F)C3=O)c2)(c2nncn2C)C1 (stereo partly drawn) [Compound 426, 6-(((1,1-difluorospiro[2.3]hexan-5-yl)amino)methyl)-2-(3-((1r,3r)-3-methoxy-1-(4-methyl-4H-1,2,4-triazol-3-yl)cyclobutyl)phenyl)-4-(trifluoromethyl)isoindolin-1-one] |
| 24 | 2.8x | 66 | 5.6 | 7 | 39 | – | – | CC(=O)C1CC([C@@H](c2cccc(N3Cc4c(cc(CNC5(C)CCC5)cc4C(F)(F)F)C3=O)c2)c2nncn2C)C1 (single isomer, unassigned) [Compound 384] |
| 64 | 4.4x | 290 | 14 | 11 | 150 | – | – | CO[C@H]1C[C@@](c2cc(NC3COC3)cc(N3Cc4c(cc(CNC5(C)CCC5)cc4C(F)(F)F)C3=O)c2)(c2nncn2C)C1 [Compound 243, 2-(3-((1s,3s)-3-methoxy-1-(4-methyl-4H-1,2,4-triazol-3-yl)cyclobutyl)-5-(oxetan-3-ylamino)phenyl)-6-(((1-methylcyclobutyl)amino)methyl)-4-(trifluoromethyl)isoindolin-1-one] |
| 5.9 | 2.5x | 14 | 26 | 0.85 | 22 | – | – | Cn1cnnc1[C@]1(c2cccc(N3Cc4c(cc(CNC5(C)CCC5)cc4C(F)(F)F)C3=O)c2)C[C@@H](OC(F)F)C1 [Compound 334, 2-(3-((1r,3r)-3-(difluoromethoxy)-1-(4-methyl-4H-1,2,4-triazol-3-yl)cyclobutyl)phenyl)-6-(((1-methylcyclobutyl)amino)methyl)-4-(trifluoromethyl)isoindolin-1-one] |
| 530 | 12x | 6000 | 17 | 490 | 8100 | – | – | CC(=O)N(C)[C@H](c1cccc(N2Cc3c(cc(CNC4(C)CCC4)cc3C(F)(F)F)C2=O)c1)c1nncn1C (single isomer, unassigned) [Compound 399] |
